How the values were obtained:
Assay in all cases: Drug affinity chromatography with c-ponatinib and LC-MS/MS (ponatinib interactome)
Format in all cases: binding
[1] = target: T1, proteins of U2OS cell lysate (Homo sapiens, UniProt P25787); conditions: captured protein PSMA2, Rank 214
T1 construct: Proteins enriched by c-ponatinib from U2OS cell lysate; endogenous in cells; host or cells: U2OS cell lysate
Procedure, shortened: (§1)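 Proteins were identified by nano-UPLC–MS/MS after elution with formic acid and trypsin digestion. They were captured from U2OS lysate (2 mg protein per pulldown, NP-40 buffer) on amine-coupled NHS beads during a 2 h incubation at 4 °C.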

[2] = target: T2, proteins of U2OS cell lysate (Homo sapiens, UniProt Q14152); conditions: EIF3A, Eukaryotic translation initiation factor 3 subunit A
T2 construct: Proteins enriched by c-ponatinib from U2OS cell lysate; endogenous in cells; host or cells: U2OS cell lysate
T2 sequence (Q14152 whole entry): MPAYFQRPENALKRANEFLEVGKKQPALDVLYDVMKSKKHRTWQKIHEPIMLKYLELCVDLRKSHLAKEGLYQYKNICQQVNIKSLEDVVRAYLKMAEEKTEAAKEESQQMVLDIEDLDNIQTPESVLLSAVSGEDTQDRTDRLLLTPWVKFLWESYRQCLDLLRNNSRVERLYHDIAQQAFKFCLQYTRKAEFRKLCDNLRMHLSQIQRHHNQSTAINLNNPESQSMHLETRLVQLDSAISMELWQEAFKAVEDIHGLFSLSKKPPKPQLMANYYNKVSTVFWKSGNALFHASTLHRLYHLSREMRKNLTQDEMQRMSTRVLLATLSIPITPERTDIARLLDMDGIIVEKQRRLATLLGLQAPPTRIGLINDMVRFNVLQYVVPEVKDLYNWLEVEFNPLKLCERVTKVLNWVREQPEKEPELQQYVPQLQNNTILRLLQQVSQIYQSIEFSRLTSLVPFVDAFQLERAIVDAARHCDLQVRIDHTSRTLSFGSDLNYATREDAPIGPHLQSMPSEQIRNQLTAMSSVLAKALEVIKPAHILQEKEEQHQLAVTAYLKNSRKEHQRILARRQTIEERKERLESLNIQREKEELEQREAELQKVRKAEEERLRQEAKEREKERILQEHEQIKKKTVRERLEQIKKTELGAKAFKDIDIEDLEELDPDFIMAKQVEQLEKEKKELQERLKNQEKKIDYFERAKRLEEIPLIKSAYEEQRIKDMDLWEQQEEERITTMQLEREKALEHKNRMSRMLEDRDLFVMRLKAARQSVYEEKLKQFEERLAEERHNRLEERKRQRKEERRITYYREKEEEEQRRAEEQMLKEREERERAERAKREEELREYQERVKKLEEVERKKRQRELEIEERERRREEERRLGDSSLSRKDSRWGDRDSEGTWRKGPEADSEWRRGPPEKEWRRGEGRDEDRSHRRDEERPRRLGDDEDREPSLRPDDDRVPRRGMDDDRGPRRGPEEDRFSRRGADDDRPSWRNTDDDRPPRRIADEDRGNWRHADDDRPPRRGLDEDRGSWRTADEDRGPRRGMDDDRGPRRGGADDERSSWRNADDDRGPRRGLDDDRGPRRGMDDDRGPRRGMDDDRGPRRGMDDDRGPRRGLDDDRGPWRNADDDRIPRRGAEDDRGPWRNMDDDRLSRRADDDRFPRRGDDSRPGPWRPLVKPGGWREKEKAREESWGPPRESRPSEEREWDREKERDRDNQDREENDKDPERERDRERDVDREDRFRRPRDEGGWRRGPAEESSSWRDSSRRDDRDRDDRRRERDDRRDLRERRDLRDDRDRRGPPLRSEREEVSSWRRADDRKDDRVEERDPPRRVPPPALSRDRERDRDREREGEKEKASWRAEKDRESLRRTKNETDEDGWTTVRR
Procedure, shortened: as §1

[3] = target: T3, proteins of U2OS cell lysate (Homo sapiens, UniProt P62269); conditions: RPS18, 40S ribosomal protein S18
T3 construct: Proteins enriched by c-ponatinib from U2OS cell lysate; endogenous in cells; host or cells: U2OS cell lysate
Procedure, shortened: as §1

[4] = target: T4, proteins of U2OS cell lysate (Homo sapiens, UniProt P35606); conditions: COPB2, Coatomer subunit beta
T4 construct: Proteins enriched by c-ponatinib from U2OS cell lysate; endogenous in cells; host or cells: U2OS cell lysate
Procedure, shortened: as §1

[5] = target: T5, proteins of U2OS cell lysate (Homo sapiens, UniProt Q9NWB6); conditions: ARGLU1, Arginine and glutamate-rich protein 1
T5 construct: Proteins enriched by c-ponatinib from U2OS cell lysate; endogenous in cells; host or cells: U2OS cell lysate
T5 sequence (Q9NWB6 whole entry): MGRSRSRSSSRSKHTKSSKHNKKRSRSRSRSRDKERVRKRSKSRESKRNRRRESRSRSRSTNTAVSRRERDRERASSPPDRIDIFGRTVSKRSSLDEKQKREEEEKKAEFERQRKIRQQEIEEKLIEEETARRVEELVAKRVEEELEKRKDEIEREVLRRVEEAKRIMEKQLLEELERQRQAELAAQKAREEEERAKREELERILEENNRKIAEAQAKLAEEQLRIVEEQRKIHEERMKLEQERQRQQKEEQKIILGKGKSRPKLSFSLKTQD
Procedure, shortened: as §1

[6] = target: T6, proteins of U2OS cell lysate (Homo sapiens, UniProt P43487); conditions: RANBP1, Ran-specific GTPase-activating protein
T6 construct: Proteins enriched by c-ponatinib from U2OS cell lysate; endogenous in cells; host or cells: U2OS cell lysate
T6 sequence (P43487 whole entry): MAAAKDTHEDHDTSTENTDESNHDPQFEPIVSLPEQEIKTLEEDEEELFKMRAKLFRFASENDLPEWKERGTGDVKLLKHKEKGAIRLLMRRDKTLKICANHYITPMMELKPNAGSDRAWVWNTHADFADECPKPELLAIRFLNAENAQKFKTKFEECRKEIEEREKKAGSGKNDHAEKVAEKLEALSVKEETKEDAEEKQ
Procedure, shortened: as §1

[7] = target: T7, proteins of U2OS cell lysate (Homo sapiens, UniProt P09038); conditions: FGF2, Fibroblast growth factor 2
T7 construct: Proteins enriched by c-ponatinib from U2OS cell lysate; endogenous in cells; host or cells: U2OS cell lysate
Procedure, shortened: as §1

[8] = target: T8, proteins of U2OS cell lysate (Homo sapiens, UniProt P09496); conditions: CLTA, Clathrin light chain A
T8 construct: Proteins enriched by c-ponatinib from U2OS cell lysate; endogenous in cells; host or cells: U2OS cell lysate
T8 sequence (P09496 whole entry): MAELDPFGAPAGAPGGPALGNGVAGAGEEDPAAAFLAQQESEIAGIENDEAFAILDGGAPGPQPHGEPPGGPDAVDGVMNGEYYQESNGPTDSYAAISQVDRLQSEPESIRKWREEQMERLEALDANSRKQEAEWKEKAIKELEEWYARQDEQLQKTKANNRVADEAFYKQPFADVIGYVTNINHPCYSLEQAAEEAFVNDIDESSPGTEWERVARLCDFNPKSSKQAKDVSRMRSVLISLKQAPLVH
Procedure, shortened: as §1

[9] = target: T9, proteins of U2OS cell lysate (Homo sapiens, UniProt P11142); conditions: HSPA8, Heat shock cognate 71 kDa protein
T9 construct: Proteins enriched by c-ponatinib from U2OS cell lysate; endogenous in cells; host or cells: U2OS cell lysate
Procedure, shortened: as §1

[10] = target: T10, proteins of U2OS cell lysate (Homo sapiens, UniProt Q13011); conditions: ECH1, Delta(3,5)-Delta(2,4)-dienoyl-CoA isomerase, mitochondrial
T10 construct: Proteins enriched by c-ponatinib from U2OS cell lysate; endogenous in cells; host or cells: U2OS cell lysate
Procedure, shortened: as §1

[11] = target: T11, proteins of U2OS cell lysate (Homo sapiens, UniProt O94906); conditions: PRPF6, Pre-mRNA-processing factor 6
T11 construct: Proteins enriched by c-ponatinib from U2OS cell lysate; endogenous in cells; host or cells: U2OS cell lysate
T11 sequence (O94906 whole entry): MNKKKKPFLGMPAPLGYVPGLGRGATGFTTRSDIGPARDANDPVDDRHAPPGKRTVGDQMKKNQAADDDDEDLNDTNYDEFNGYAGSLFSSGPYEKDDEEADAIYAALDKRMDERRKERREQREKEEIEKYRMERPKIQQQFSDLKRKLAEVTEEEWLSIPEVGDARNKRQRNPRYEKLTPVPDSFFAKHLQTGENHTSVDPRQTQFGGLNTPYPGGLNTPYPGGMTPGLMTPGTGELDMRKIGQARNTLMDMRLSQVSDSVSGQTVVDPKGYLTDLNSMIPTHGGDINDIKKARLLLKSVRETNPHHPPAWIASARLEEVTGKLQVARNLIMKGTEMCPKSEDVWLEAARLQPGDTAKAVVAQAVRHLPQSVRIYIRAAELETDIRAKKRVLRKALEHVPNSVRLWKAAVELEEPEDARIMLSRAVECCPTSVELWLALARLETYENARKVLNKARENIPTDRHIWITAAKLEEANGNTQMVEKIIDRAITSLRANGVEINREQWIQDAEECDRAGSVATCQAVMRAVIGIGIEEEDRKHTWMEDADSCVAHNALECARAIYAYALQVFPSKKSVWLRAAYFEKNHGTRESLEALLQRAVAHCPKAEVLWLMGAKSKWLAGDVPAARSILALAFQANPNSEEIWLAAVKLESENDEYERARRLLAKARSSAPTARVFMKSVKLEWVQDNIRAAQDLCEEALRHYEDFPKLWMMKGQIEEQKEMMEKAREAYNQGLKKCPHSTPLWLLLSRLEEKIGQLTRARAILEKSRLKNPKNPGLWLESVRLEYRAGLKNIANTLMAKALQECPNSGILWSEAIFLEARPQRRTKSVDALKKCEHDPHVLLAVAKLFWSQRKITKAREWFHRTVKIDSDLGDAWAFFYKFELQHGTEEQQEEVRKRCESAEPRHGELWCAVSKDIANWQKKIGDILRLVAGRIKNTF
Procedure, shortened: as §1

[12] = target: T12, proteins of U2OS cell lysate (Homo sapiens, UniProt P00387); conditions: CYB5R3, NADH-cytochrome b5 reductase 3
T12 construct: Proteins enriched by c-ponatinib from U2OS cell lysate; endogenous in cells; host or cells: U2OS cell lysate
Procedure, shortened: as §1

[13] = target: T13, proteins of U2OS cell lysate (Homo sapiens, UniProt P29317); conditions: EPHA2, Ephrin type-A receptor 2
T13 construct: Proteins enriched by c-ponatinib from U2OS cell lysate; endogenous in cells; host or cells: U2OS cell lysate
Procedure, shortened: as §1

[14] = target: T14, proteins of U2OS cell lysate (Homo sapiens, UniProt O75821); conditions: EIF3G, Eukaryotic translation initiation factor 3 subunit G
T14 construct: Proteins enriched by c-ponatinib from U2OS cell lysate; endogenous in cells; host or cells: U2OS cell lysate
T14 sequence (O75821 whole entry): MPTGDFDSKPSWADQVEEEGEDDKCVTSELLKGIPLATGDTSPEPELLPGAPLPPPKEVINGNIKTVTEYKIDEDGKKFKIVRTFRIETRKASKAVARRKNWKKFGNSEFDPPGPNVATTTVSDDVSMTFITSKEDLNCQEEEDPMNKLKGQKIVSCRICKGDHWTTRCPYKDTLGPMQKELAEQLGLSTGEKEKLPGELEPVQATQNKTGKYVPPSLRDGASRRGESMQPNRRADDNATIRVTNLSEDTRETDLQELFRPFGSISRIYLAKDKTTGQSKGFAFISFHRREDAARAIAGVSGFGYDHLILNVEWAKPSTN
Procedure, shortened: as §1

[15] = target: T15, proteins of U2OS cell lysate (Homo sapiens, UniProt P08559); conditions: PDHA1, Pyruvate dehydrogenase E1 component subunit alpha, somatic form, mitochondrial
T15 construct: Proteins enriched by c-ponatinib from U2OS cell lysate; endogenous in cells; host or cells: U2OS cell lysate
T15 sequence (P08559 30-390): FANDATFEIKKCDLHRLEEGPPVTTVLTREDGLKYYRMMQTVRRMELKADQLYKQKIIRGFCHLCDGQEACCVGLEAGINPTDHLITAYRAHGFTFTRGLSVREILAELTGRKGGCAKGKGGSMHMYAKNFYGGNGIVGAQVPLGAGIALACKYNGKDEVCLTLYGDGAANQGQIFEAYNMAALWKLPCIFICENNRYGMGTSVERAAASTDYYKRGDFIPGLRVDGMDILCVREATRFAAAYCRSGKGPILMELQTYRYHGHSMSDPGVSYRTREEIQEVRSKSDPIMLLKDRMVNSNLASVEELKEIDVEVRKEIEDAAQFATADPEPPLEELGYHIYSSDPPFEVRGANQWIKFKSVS
Procedure, shortened: as §1

[16] = target: T16, proteins of U2OS cell lysate (Homo sapiens, UniProt Q9Y2D5); conditions: AKAP2, A-kinase anchor protein 2
T16 construct: Proteins enriched by c-ponatinib from U2OS cell lysate; endogenous in cells; host or cells: U2OS cell lysate
Procedure, shortened: as §1

[17] = target: T17, proteins of U2OS cell lysate (Homo sapiens, UniProt Q6PHR2); conditions: ULK3, Serine/threonine-protein kinase ULK3
T17 construct: Proteins enriched by c-ponatinib from U2OS cell lysate; endogenous in cells; host or cells: U2OS cell lysate
Procedure, shortened: as §1

[18] = target: T18, proteins of U2OS cell lysate (Homo sapiens, UniProt P34913); conditions: EPHX2, Bifunctional epoxide hydrolase 2
T18 construct: Proteins enriched by c-ponatinib from U2OS cell lysate; endogenous in cells; host or cells: U2OS cell lysate
T18 sequence (P34913 whole entry): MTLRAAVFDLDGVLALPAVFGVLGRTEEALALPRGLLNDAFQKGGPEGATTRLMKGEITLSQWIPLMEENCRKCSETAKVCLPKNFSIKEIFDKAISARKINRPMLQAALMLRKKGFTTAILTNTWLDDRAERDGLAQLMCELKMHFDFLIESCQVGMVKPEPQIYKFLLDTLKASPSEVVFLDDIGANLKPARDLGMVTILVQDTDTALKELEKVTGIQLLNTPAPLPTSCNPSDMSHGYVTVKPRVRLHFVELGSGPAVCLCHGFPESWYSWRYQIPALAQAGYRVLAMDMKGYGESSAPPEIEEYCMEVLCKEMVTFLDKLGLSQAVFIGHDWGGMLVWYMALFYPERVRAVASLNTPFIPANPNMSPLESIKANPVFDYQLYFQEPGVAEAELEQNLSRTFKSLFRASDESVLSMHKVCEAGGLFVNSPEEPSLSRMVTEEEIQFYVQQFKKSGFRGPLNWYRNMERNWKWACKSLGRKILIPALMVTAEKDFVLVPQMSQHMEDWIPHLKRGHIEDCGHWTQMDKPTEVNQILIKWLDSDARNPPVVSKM
Procedure, shortened: as §1

[19] = target: T19, proteins of U2OS cell lysate (Homo sapiens, UniProt Q9ULV4); conditions: CORO1C, Coronin-1C
T19 construct: Proteins enriched by c-ponatinib from U2OS cell lysate; endogenous in cells; host or cells: U2OS cell lysate
T19 sequence (Q9ULV4 whole entry): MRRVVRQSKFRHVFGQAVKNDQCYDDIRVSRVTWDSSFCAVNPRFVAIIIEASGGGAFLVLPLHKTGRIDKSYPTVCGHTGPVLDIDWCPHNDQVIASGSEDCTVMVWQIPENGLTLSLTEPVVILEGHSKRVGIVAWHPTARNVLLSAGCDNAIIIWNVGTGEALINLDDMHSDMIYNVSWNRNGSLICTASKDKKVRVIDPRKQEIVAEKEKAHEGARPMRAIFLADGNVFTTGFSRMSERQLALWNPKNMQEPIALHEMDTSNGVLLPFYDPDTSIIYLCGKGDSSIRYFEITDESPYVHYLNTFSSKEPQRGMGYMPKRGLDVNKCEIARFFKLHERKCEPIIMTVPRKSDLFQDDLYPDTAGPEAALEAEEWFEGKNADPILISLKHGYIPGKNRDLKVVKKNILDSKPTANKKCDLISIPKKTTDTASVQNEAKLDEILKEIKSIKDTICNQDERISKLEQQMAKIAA
Procedure, shortened: as §1

T1 sequence (P25787 whole entry): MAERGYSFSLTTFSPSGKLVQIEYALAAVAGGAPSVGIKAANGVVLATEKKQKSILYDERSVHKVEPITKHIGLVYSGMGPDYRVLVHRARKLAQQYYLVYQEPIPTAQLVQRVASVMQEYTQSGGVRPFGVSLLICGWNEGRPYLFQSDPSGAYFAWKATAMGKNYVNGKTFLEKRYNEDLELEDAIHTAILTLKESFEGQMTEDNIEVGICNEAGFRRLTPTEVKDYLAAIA

SMILES	Average LFQ intensity [1]	Average LFQ PON_WT [2]	Average LFQ PON_WT [3]	Average LFQ PON_WT [4]	Average LFQ PON_WT [5]	Average LFQ PON_WT [6]	Average LFQ PON_WT [7]	Average LFQ PON_WT [8]	Average LFQ PON_WT [9]	Average LFQ PON_WT [10]	Average LFQ PON_WT [11]	Average LFQ PON_WT [12]	Average LFQ PON_WT [13]	Average LFQ PON_WT [14]	Average LFQ PON_WT [15]	Average LFQ PON_WT [16]	Average LFQ PON_WT [17]	Average LFQ PON_WT [18]	Average LFQ PON_WT [19]
Cc1ccc(C(=O)Nc2ccc(CN3CCN(CCCN)CC3)c(C(F)(F)F)c2)cc1C#Cc1cnc2cccnn12 [c-ponatinib, reference compound]	21.6987	–	–	–	–	–	–	–	–	–	–	–	–	–	–	–	–	–	–
Cc1ccc(C(=O)Nc2ccc(CN3CCN(C)CC3)c(C(F)(F)F)c2)cc1C#Cc1cnc2cccnn12 [PON]	–	21.466	21.0717	21.0921	21.1214	20.4588	20.5832	24.9334	27.1657	25.3624	19.4979	20.8184	29.5288	21.2492	21.0192	19.1683	24.6179	24.5257	24.6024

Reference: PMC6120666 (The EMBO Journal, 2018)
